Source: patent US12459922B2 (Gilead Sciences, Inc., priority 2022, dated 2025)

Key:
[1] = target: T1, PARP7 (Homo sapiens, UniProt Q7Z3E1); assay: Probe Displacement Assay for PARP7 (MSD electrochemiluminescent, biotinylated probe RBNO11147); conditions: displacement of biotinylated probe RBNO11147 from PARP7 NAD+-binding site; read-out: MSD ProbeDisp PARP7 IC50
T1 sequence (Q7Z3E1 1-657): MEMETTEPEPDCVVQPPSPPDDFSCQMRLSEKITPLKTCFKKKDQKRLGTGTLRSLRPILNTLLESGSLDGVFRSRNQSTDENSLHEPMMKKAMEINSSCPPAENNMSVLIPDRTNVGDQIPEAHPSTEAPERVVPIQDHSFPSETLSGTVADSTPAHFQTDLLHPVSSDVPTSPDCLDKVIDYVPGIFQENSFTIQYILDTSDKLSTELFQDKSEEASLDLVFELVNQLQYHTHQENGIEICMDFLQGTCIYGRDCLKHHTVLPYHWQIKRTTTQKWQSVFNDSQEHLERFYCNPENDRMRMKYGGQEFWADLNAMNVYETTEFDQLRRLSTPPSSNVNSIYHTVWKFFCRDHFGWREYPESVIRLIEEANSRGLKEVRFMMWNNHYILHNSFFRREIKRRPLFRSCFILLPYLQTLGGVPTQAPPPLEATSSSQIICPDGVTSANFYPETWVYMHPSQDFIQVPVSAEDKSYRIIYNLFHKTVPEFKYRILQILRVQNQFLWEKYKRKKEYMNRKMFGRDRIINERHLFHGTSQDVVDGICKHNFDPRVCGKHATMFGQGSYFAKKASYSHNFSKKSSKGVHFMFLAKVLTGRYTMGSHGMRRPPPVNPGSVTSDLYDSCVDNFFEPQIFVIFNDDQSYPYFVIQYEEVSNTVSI

[2] = test system: endogenous cellular STAT1 (phosphorylated at Tyr701) in NCI-H1373 cells; assay: Phospho-STAT1 (Tyr701) LANCE Ultra TR-FRET Detection Assay; type: cell-based; conditions: Homo sapiens, NCI-H1373, 48 h, phospho-STAT1 (Tyr701) induction, read-out: NH1373 pSTAT1 EC50

Structure (SMILES) | IC50 [1] | EC50 [2]
C[C@@H](CCCn1ccc2cc(-c3cnc(C(F)(F)F)cn3)c(F)cc2c1=O)Nc1cn[nH]c(=O)c1C(F)(F)F [Example 21, 7-fluoro-2-[(4S)-4-[[6-oxo-5-(trifluoromethyl)-1H-pyridazin-4-yl]amino]pentyl]-6-[5-(trifluoromethyl)pyrazin-2-yl]isoquinolin-1-one] | 0.3 nM | 136 nM
C[C@@H](CCCn1ccc2cc(-c3ccc(OC(F)F)cn3)c(F)cc2c1=O)Nc1cn[nH]c(=O)c1C(F)(F)F [Example 43, 6-[5-(difluoromethoxy)-2-pyridyl]-7-fluoro-2-[(4S)-4-[[6-oxo-5-(trifluoromethyl)-1H-pyridazin-4-yl]amino]pentyl]isoquinolin-1-one] | 0.76 nM | 311 nM
CC[C@@H](CCCn1ccc2cc(-c3ncc(Cl)c(N)n3)c(F)cc2c1=O)Nc1cn[nH]c(=O)c1C(F)(F)F [Example 303, (S)-6-(4-amino-5-chloropyrimidin-2-yl)-7-fluoro-2-(4-((6-oxo-5-(trifluoromethyl)-1,6-dihydropyridazin-4-yl)amino)hexyl)isoquinolin-1(2H)-one] | 0.273 nM | 3.43 nM
C[C@@H](CCCn1cnc2cc(-c3ccc(F)cn3)c(F)cc2c1=O)Nc1cn[nH]c(=O)c1C(F)(F)F [Example 59, (S)-6-fluoro-7-(5-fluoropyridin-2-yl)-3-(4-((6-oxo-5-(trifluoromethyl)-1,6-dihydropyridazin-4-yl)amino)pentyl)quinazolin-4(3H)-one] | 0.82 nM | 386 nM
C[C@@H](CCCn1ncc2cc(-c3ncc(C(F)(F)F)cn3)ccc2c1=O)Nc1cn[nH]c(=O)c1C(F)(F)F [Example 4, 2-[(4S)-4-[[6-oxo-5-(trifluoromethyl)-1H-pyridazin-4-yl]amino]pentyl]-6 [5-(trifluoromethyl)pyrimidin-2-yl]phthalazin-1-one] | 0.2 nM | 95.6 nM
C[C@@H](CCCn1ccc2cc(-c3ccc(C4(C#N)CC4)cn3)cc(F)c2c1=O)Nc1cn[nH]c(=O)c1C(F)(F)F [Example 38, 1-[6-[8-fluoro-1-oxo-2-[(4S)-4-[[6-oxo-5-(trifluoromethyl)-1H-pyridazin-4-yl]amino]pentyl]-6-isoquinolyl]-3-pyridyl]cyclopropanecarbonitrile] | 0.3 nM | 579 nM
C[C@@H](CCCn1ccc2cc(-c3cccc4c3OCCO4)c(F)cc2c1=O)Nc1cn[nH]c(=O)c1C(F)(F)F [Example 27, (S)-6-(2,3-dihydrobenzo[b][1,4]dioxin-5-yl)-7-fluoro-2-(4-((6-oxo-5-(trifluoromethyl)-1,6-dihydropyridazin-4-yl)amino)pentyl)isoquinolin-1(2H)-one] | 25 nM | 10000 nM
C[C@@H](CCCn1ccc2cc(-c3ncc(C#N)cn3)c(F)cc2c1=O)Nc1cn[nH]c(=O)c1C(F)(F)F [Example 24, (S)-2-(7-fluoro-1-oxo-2-(4-((6-oxo-5-(trifluoromethyl)-1,6-dihydropyridazin-4-yl)amino)pentyl)-1,2-dihydroisoquinolin-6-yl)pyrimidine-5-carbonitrile] | 0.9 nM | 220 nM
C[C@@H](CCCn1c(=O)[nH]c2cc(-c3ncc(C(F)(F)F)cn3)c(F)cc2c1=O)Nc1cn[nH]c(=O)c1C(F)(F)F [Example 30, 6-fluoro-3-[(4S)-4-[[6-oxo-5-(trifluoromethyl)-1H-pyridazin-4-yl]amino]pentyl]-7-[5-(trifluoromethyl)pyrimidin-2-yl]-1H-quinazoline-2,4-dione] | 0.3 nM | 18.6 nM
C[C@@H](CCCn1ccc2cc(-c3ccc(C(F)(F)F)cn3)c(F)cc2c1=O)Nc1cn[nH]c(=O)c1C(F)(F)F [Example 9, 7-fluoro-2-[(4S)-4-[[6-oxo-5-(trifluoromethyl)-1H-pyridazin-4-yl]amino]pentyl]-6-[5-(trifluoromethyl)-2-pyridyl]isoquinolin-1-one] | 0.4 nM | 92.1 nM
C[C@@H](CCCn1ccc2cc(-c3ccc(C(F)(F)F)cn3)cc(F)c2c1=O)Nc1cn[nH]c(=O)c1C(F)(F)F [Example 11, 8-fluoro-2-[(4S)-4-[[6-oxo-5-(trifluoromethyl)-1H-pyridazin-4-yl]amino]pentyl]-6-[5-(trifluoromethyl)-2-pyridyl]isoquinolin-1-one] | 0.2 nM | 32.4 nM
Nc1nc(-c2cc3ccn(CCC[C@H](COC(F)F)Nc4cn[nH]c(=O)c4C(F)(F)F)c(=O)c3cc2F)ncc1C(F)(F)F [Example 379, (R)-6-(4-amino-5-(trifluoromethyl)pyrimidin-2-yl)-2-(5-(difluoromethoxy)-4-((6-oxo-5-(trifluoromethyl)-1,6-dihydropyridazin-4-yl)amino)pentyl)-7-fluoroisoquinolin-1(2H)-one] | 0.14 nM | 2.43 nM
C[C@@H](CCCn1ccc2cc(-c3ncc(C(F)(F)F)c(N4C[C@H](O)C[C@@H]4C)n3)c(F)cc2c1=O)Nc1cn[nH]c(=O)c1C(F)(F)F [Example 313, 7-fluoro-6-(4-((2S,4R)-4-hydroxy-2-methylpyrrolidin-1-yl)-5-(trifluoromethyl)pyrimidin-2-yl)-2-((S)-4-((6-oxo-5-(trifluoromethyl)-1,6-dihydropyridazin-4-yl)amino)pentyl)isoquinolin-1(2H)-one] | 0.192 nM | 18.4 nM
C[C@@H](CCCn1ccc2cc(-c3ncc(F)cn3)c(F)cc2c1=O)Nc1cn[nH]c(=O)c1C(F)(F)F [Example 34, 7-fluoro-6-(5-fluoropyrimidin-2-yl)-2-[(4S)-4-[[6-oxo-5-(trifluoromethyl)-1H-pyridazin-4-yl]amino]pentyl]isoquinolin-1-one] | 0.6 nM | 429 nM
C[C@@H](CCCn1ccc2cc(-c3ncc(C(F)(F)F)cn3)cc(F)c2c1=O)Nc1cn[nH]c(=O)c1C(F)(F)F [Example 7, 8-fluoro-2-[(4S)-4-[[6-oxo-5-(trifluoromethyl)-1H-pyridazin-4-yl]amino]pentyl]-6-[5-(trifluoromethyl)pyrimidin-2-yl]isoquinolin-1-one] | 0.3 nM | 61.3 nM
C[C@@H](CCCn1ccc2cc(-c3ncc(OC(F)F)cn3)c(F)c(F)c2c1=O)Nc1cn[nH]c(=O)c1C(F)(F)F [Example 56, (S)-6-(5-(difluoromethoxy)pyrimidin-2-yl)-7,8-difluoro-2-(4-((6-oxo-5-(trifluoromethyl)-1,6-dihydropyridazin-4-yl)amino)pentyl)isoquinolin-1(2H)-one] | 0.579 nM | 67.2 nM
C[C@@H](CCCn1ccc2cc(-c3nc(C(F)(F)F)n(C)n3)c(F)cc2c1=O)Nc1cn[nH]c(=O)c1C(F)(F)F [Example 300, (S)-7-fluoro-6-(1-methyl-5-(trifluoromethyl)-1H-1,2,4-triazol-3-yl)-2-(4-((6-oxo-5-(trifluoromethyl)-1,6-dihydropyridazin-4-yl)amino)pentyl)isoquinolin-1(2H)-one] | 0.413 nM | 56.1 nM
C[C@@H](CCCn1ccc2cc(-c3ccc(OC(F)F)cn3)c(F)c(F)c2c1=O)Nc1cn[nH]c(=O)c1C(F)(F)F [Example 57, (S)-6-(5-(difluoromethoxy)pyridin-2-yl)-7,8-difluoro-2-(4-((6-oxo-5-(trifluoromethyl)-1,6-dihydropyridazin-4-yl)amino)pentyl)isoquinolin-1(2H)-one] | 0.613 nM | 144 nM
C[C@@H](CCCn1ccc2cc(-c3nc(C(F)F)cs3)c(F)cc2c1=O)Nc1cn[nH]c(=O)c1C(F)(F)F [Example 301, (S)-6-(4-(difluoromethyl)thiazol-2-yl)-7-fluoro-2-(4-((6-oxo-5-(trifluoromethyl)-1,6-dihydropyridazin-4-yl)amino)pentyl)isoquinolin-1(2H)-one] | 0.508 nM | 549 nM
